The nature of assay [1]: Inhibition of Cy3-labeled mouse preE-let-7f-1 miRNA binding to human LIN28A (16 to 187 residues) expressed in Escherichia coli BL21 (DE3) at 75 uM preincubated for 2 hrs followed by miRNA addition and measured after 15 mins by electrophoretic mobility shift assay relative to control. On the technique in general: Mobility shift assays separate free from complexed probe on a gel.

A further assay concerns JAR. The experiment in a line: Antiproliferative activity against human JAR cells assessed as reduction in cell viability at 10 uM by MTT assay. In kind it is functional. (Tetrazolium assays rely on reduction of a dye to a coloured formazan, in cell work by metabolically active cells.)
The nature of assay [2]: Inhibition of Cy3-labeled mouse preE-let-7f-1 miRNA binding to human LIN28A (16 to 187 residues) expressed in Escherichia coli BL21 (DE3) preincubated for 2 hrs followed by miRNA addition and measured after 15 mins by electrophoretic mobility shift assay.
Assay [3] can be described thus: Inhibition of FAM-labeled mouse preE-let-7f-1 miRNA binding to human LIN28A (16 to 187 residues) expressed in Escherichia coli BL21 (DE3) by fluorescence polarization assay. (In general: Polarisation of emitted light reports the rotation of a fluorescent probe.)
The nature of assay [4]: Inhibition of FAM-labeled mouse preE-let-7f-1 miRNA binding to human LIN28A (16 to 187 residues) expressed in Escherichia coli BL21 (DE3) preincubated for 30 mins followed by miRNA addition by fluorescence polarization assay.

As to `N#Cc1ccc2c(c1)[C@@H]1C=CC[C@@H]1[C@H](c1ccc(C(=O)O)cc1)N2`, in assay [1], the inhibition was less than 5%.
On to `CCOc1cccc2c1N(C(C)=O)[C@@H](c1cccc(C(=O)O)c1)[C@H]1CC=C[C@@H]21`, for which the inhibition at 10 µM with JAR was 31%.
The same measure, in the same setting: next, `CCOc1cccc2c1N(C(C)=O)[C@@H](c1ccc(C(=O)O)cc1)[C@H]1CCCN[C@@H]21`: 19%.
For `CCOc1cccc2c1N[C@@H](c1ccc(C(=O)OC)cc1)[C@H]1CC=C[C@@H]21`, in assay [1], the inhibition is less than 5%.
On the same count and under the same terms, next, `CCOc1cccc2c1N[C@@H](c1cccnc1)[C@H]1CC=C[C@@H]21`: less than 5%.
Still for that read-out and setting: next, `CC(=O)c1ccc2c(c1)N[C@@H](c1ccc(C(=O)O)cc1)[C@H]1CC=C[C@@H]21`: less than 5%; `CCOc1cccc2c1N[C@@H](c1ccc(C#N)cc1)[C@H]1CC=C[C@@H]21`: less than 5%.
Same read-out and setting: next, `CCOc1cccc2c1N[C@@H](c1ccc(C(F)(F)F)cc1)[C@H]1CC=C[C@@H]21`: less than 5%.
Consider `CCOC(=O)[C@@H]1Nc2c(OCC)cccc2[C@@H]2C=CC[C@H]12`, for which, in assay [1], the inhibition was less than 5%.
Regarding `CCOc1cccc2c1N[C@@H](C(=O)O)[C@H]1CC=C[C@@H]21`, the inhibition in assay [1] stood at 86%. Further, in the assay with JAR, the inhibition at 10 µM is less than 10%. For the same compound, in assay [2], the IC50 worked out at 21.5 µM.
With `O=C(O)c1ccc([C@@H]2Nc3c(Cl)cc(Cl)cc3[C@@H]3C=CC[C@@H]32)cc1`, in assay [1], the inhibition stood at 34%.
On to `CCOc1cccc2c1N(C(C)=O)[C@@H](c1ccc(C(=O)O)cc1)[C@H]1CCCN(C(=O)OC(C)(C)C)[C@@H]21`, for which the inhibition at 10 µM in the assay on JAR turned out to be 35%.
On the same count and under the same terms, next, `O=C(O)c1cccc([C@@H]2Nc3c(OC(F)(F)F)cccc3[C@@H]3C=CC[C@@H]32)c1`: 20%.
For the compound `COc1cc2c(c(OC)c1OC)[C@@H]1C=CC[C@@H]1[C@H](c1ccc(C(=O)O)cc1)N2`, the inhibition in assay [1] is less than 5%.
On the same count and under the same terms, next, `CC(=O)c1ccc2c(c1)[C@@H]1C=CC[C@@H]1[C@H](c1ccc(C(=O)O)cc1)N2`: less than 5%.
With `CCOc1cccc2c1N[C@@H](c1ccc(C(=O)O)[nH]1)[C@H]1CC=C[C@@H]21`, the inhibition at 10 µM in the assay on JAR turned out to be 23%.
For the compound `CCOc1cccc2c1N[C@@H](c1ccc([N+](=O)[O-])cc1)[C@H]1CC=C[C@@H]21`, the inhibition in assay [1] is less than 5%.
Still for that read-out and setting: next, `CCOc1cccc2c1N[C@@H](c1cccc(O)c1)[C@H]1CC=C[C@@H]21`: less than 5%; `COc1cccc2c1N[C@@H](c1ccc(C(=O)O)cc1)[C@H]1CC=C[C@@H]21`: less than 5%.
Regarding `CCOc1cccc2c1N[C@@H](c1ccc(C(=O)O)cc1)[C@H]1CC=C[C@@H]21`, the values for the IC50 in assay [3] and in assay [2] were 50 µM and 41.6 µM, respectively. Also, the inhibition in assay [1] was found to be 53%. Further, the inhibition at 10 µM with JAR is less than 10%.
On to `CC(C)Oc1cccc2c1N[C@@H](c1ccc(C(=O)O)cc1)[C@H]1CC=C[C@@H]21`, for which, in assay [1], the inhibition was less than 5%.
With `CCOc1cccc2c1N[C@H](c1ccc(C(=O)O)cc1)[C@@H]1CC=C[C@H]21`, the IC50 in assay [3] was 40 µM.
As to `CCOc1cccc2c1N[C@@H](c1cccc(C(=O)O)c1)[C@H]1CC=C[C@@H]21`, the inhibition in assay [1] was 86%. For the same compound, the half-inhibitory concentration (IC50) was 4 µM in assay [4] and 21.9 µM in assay [2]. Moreover, in the assay with JAR, the inhibition at 10 µM is less than 10%.

A word on the inhibition: it is the relative decrease from the control value, in per cent. One may read the IC50 as the concentration needed to halve the response being measured.

Source of the values: ChEMBL document CHEMBL5154666, “Small molecules with tetrahydroquinoline-containing Povarov scaffolds as inhibitors disrupting the Protein-RNA interaction of LIN28-let-7” (Eur J Med Chem, 2022).
